What is called IC50 is the concentration at which inhibition is half-maximal.

Results on one molecule are retold here after patent US4772619A, “[(1H-benzimidazol-2-ylsulfinyl)methyl]-2-pyridinamines” (G. D. Searle & Co., priority 1986, dated 1988).

Each structure is given as a SMILES string.

In one test the test system is gastric acid secretion. Description: Inhibition of Gastric Acid Secretion in Gastric Fistula Beagle Dogs. The class given is in vivo. The conditions noted are these: 3 mg/kg dose, i.v.; histamine-stimulated, four-hour period. From the text: Inhibition of Gastric Acid Secretion in Gastric Fistula Beagle Dogs
Adult female beagle dogs weighing 6 to 11 kilograms obtained from Laboratory Research Enterprises (Kalamazoo, Mich.) or from Hazelton Research Animals (Cumberland, Va.) were surgically implanted with a simple Thomas-type gastric cannula. After recovery from surgery, the dogs were trained to stand quietly, fully conscious, in Pavlov-type dog restraining slings and were acclimated to intravenous infusion of histamine dihydrochloride. During the course of these studies, no dog was used more than once a week. All dogs were deprived of food, but not water, for 18 hours prior to each assay. […] The volume of gastric secretions, collected in plastic bottles affixed to the cannula, were measured to the nearest 0.1 ml at 30 minute intervals. […]
Intravenous dosing: Following a 30-minute basal secretion period, test compounds were administered intravenously (i.v.). […] The pH and titratable acidity were determined for samples from each collection period. […]
Data from each protocol were analyzed for three gastric sample variables: volume of gastric juice, acid concentration, and total acid output. Percent inhibition for each four-hour experimental period was determined for each parameter by comparison with 3 to 4 controls in which only food was given. Estimates of ED50 's were determined from dose response curves.

The target of another test is T1, (H^+ +K^+)-ATPase (Canis lupus familiaris, UniProt P50996).
T1 construct: from tissue; host or cells: microsomes from glandular gastric mucosa (antral and cardiac regions removed) of mongrel dogs, lyophilized
Nature of the test: Inhibition of (H^+ +K^+)-ATPase from Canine Gastric Mucosa. The conditions noted are these: canine gastric mucosa microsomes, pH 6.0, 30 min preincubation with compound at 37°. The class given is biochemical, canine (mongrel dogs).

T1 sequence (P50996 whole entry): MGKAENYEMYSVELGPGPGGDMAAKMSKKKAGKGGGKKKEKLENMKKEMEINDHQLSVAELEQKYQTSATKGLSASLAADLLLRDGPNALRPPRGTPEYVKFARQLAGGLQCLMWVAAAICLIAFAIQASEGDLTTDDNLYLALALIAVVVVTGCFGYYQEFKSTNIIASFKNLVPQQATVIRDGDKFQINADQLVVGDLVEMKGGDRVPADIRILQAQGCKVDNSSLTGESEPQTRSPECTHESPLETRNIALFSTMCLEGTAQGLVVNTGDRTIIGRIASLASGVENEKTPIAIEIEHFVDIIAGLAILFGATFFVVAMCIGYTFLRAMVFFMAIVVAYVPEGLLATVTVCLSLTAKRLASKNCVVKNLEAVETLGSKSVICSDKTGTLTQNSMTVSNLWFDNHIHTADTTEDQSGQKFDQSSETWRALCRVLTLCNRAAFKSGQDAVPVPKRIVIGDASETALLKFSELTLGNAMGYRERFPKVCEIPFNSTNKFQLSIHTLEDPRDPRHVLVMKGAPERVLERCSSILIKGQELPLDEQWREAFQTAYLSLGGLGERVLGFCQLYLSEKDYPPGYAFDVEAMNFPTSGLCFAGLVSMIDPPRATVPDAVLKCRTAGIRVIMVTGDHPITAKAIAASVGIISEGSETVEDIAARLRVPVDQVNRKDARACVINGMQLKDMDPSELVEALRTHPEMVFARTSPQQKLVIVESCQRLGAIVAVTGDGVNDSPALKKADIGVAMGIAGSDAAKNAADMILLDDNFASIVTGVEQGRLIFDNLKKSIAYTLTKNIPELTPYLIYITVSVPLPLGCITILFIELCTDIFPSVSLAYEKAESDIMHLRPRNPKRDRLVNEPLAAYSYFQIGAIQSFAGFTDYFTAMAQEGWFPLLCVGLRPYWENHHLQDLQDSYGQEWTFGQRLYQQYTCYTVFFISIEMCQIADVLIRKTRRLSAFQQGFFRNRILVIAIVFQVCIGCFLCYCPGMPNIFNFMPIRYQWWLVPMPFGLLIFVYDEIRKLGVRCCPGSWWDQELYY
T1 sequence (P33704 whole entry partner): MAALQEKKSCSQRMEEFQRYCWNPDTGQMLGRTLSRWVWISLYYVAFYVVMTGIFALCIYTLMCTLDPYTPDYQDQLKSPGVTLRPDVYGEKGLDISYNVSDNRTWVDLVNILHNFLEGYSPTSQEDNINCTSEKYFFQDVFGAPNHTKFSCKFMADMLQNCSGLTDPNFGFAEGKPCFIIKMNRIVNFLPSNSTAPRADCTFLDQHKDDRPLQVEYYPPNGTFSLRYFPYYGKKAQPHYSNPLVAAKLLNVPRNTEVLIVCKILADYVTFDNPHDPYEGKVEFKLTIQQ
Method for (H^+ +K^+)-ATPase: Mongrel dogs weighing 15 to 25 kilograms were fasted for twenty-four hours, with water provided ad libitum. The animals were anesthetized with pentobarbital and the stomachs were removed. Subsequent tissue manipulations and subcellular fractionations were performed at 0° to 4° C. After the stomachs were cut open and rinsed with tap water, the antral and cardiac regions were removed and the remaining tissue was rinsed three times in saline. The glandular mucosa was removed mechanically, chopped finely in a medium containing 10 mM Tris hydrochloride (pH 7.4) and 250 mM sucrose, and homogenized. The homogenate was centrifuged at 20,000xg for twenty minutes and the pellet discarded. The supernatant was then centrifuged at 150,000xg for ninety minutes and the supernatant discarded. […]
(H^+ +K^+)-ATPase activity for each test compound was determined, in duplicate, by measuring the release of inorganic phosphate, which was assayed according to the method of J. ChandraRajan and L. Klein. […] At least fifteen minutes later, the optical absorbance at 870 nm (which was proportional to inorganic phosphate concentration up to 100 nmoles per tube, as determined by a standard curve) was obtained. […]
(H^+ +K^+)-ATPase activity is represented by the difference between the measured activities in the presence of potassium ion (K^+ -stimulated) and in the absence of potassium ion (basal).

`Nc1ncccc1C[S+]([O-])c1nc2ccccc2[nH]1.O` (centres unmarked) [Example 3, 3-[(1H-benzimidazol-2-ylsulfinyl)methyl]-2-pyridinamine hydrate]: in the test with gastric acid secretion, the “Gastric-Fistula Beagle % Inhibition” value stood at 41%. The IC50 on (H^+ +K^+)-ATPase turned out to be 100 µM.
